Paper PMC5760527, “Connexin 43 Hemichannel as a Novel Mediator of Sterile and Infectious Inflammatory Diseases” (Scientific Reports, 2018)

Legend:
[1] = test system: Cx43 protein expression, NIH 3T3 fibroblasts; assay: Cx43 protein expression, Western blotting, NIH 3T3 cells; assay type: cell-based; conditions: prolonged incubation, data not shown
Method: (§1) The cellular levels of Cx43 and phosphor-PKR were determined by Western blotting analysis using an affinity-purified rabbit anti-Cx43 or anti-phospho-PKR (Thr^451) IgGs as previously described[9],[25],[53]. The levels of HMGB1 in the culture medium were determined by Western blotting analysis as described previously. The level of β-actin was used as a reference of total cellular proteins. Briefly, an equal volume of culture medium (conditioned by identical macrophage cell numbers) was harvested, and protein content was concentrated by ultrafiltration (with a molecular weight cutoff of 10.0 kDa), and then normalized to the same volume with a sample buffer. Proteins in equal sample volume were resolved on sodium dodecyl sulfate (SDS)-polyacrylamide gels, and transferred to polyvinylidene difluoride (PVDF) membranes. After blocking with 5% nonfat milk, the membrane was incubated with respective antibodies (anti-Cx43, 1:1000; anti-phospho-PKR, 1:1000; anti-HMGB1, 1:1,000; anti-β-actin. 1:5,000) overnight. Subsequently, the membrane was incubated with the appropriate secondary antibody, and the immunoreactive bands were visualized by chemiluminescence techniques.

[2] = test system: gap junctional intercellular communication, NIH 3T3 fibroblasts; assay: Scrape-loading assay of GJ intercellular communication; assay type: cell-based; conditions: LY (444 Da) and rhodamine dextran (10,000 Da), overnight or 20 min incubation, 2 min diffusion
Method: We used NIH 3T3 fibroblasts to investigate the effects of Cx43 mimetic peptides on GJ permeability employing a technique termed scrape-loading. After overnight or 20 min incubation with or without Cx43 mimetic peptides in DMEM, EGTA was added to DMEM to deplete free calcium. Immediately afterwards, 1% LY and 1% rhodamine dextran was added into PBS, followed by scraping the cell monolayer with a pipette tip loading tracers into cytoplasmic compartment of scraped cells. Tracers were allowed to diffuse to adjacent cells for 2 min before immobilized by PF fixation for 10 minutes. Cells were subsequently extensively washed in PBS three times and coversliped to allow examination of LY diffusion.

[3] = test system: LPS-induced ATP release, RAW 264.7 cells; assay: ATP release assay; assay type: cell-based, murine; conditions: P5 20 µM; LPS 1 µg/ml; RAW 264.7, serum-free DMEM; luciferin:luciferase; P < 0.05 versus +LPS
Method: In addition to the LY dye uptake, we also employed the ATP release assay to measure the Cx43 hemichannel activities. The current gold standard for ATP quantification relied on luciferin:luciferase chemistry where the enzyme luciferase catalyzed the oxidation of ATP and luciferin ultimately resulting in the generation of a photon which could be quantified by luminometry using a luminometer plate reader (Synergy H1 Hybrid, Biotek, Winooski, U.S.A.) and the amount of ATP was calculated from standard curve. Briefly, RAW 264.7 cells were cultured in serum-free DMEM medium, and stimulated with LPS (1 µg/ml) in the absence or presence of Cx43 mimetic peptide (P5, 20 µM). The cell-conditioned culture medium was collected and subjected to ATP measurement. We used the Molecular Probes® ATP Determination Kit (Cat. # A22066, Life Technologies), which was based on luciferase’s absolute requirement for ATP in producing light (emission maximum ~560 nm at pH 7.8), to measure the extracellular ATP levels in LPS-stimulated RAW 264.7 cells.

[4] = test system: LPS-induced trypan blue uptake, RAW 264.7 cells; assay: Trypan blue uptake assay; assay type: cell-based, murine; conditions: P5 10 µg/ml, LPS 1.0 µg/ml, 16 h, 0.08% trypan blue, P < 0.05 versus +LPS
Method: Specifically, murine macrophage-like RAW 264.7 cells were stimulated with LPS (1.0 µg/ml) in the absence or presence of P5 peptide (10 µg/ml) for 16 h, and the culture medium was then replaced with 1 × PBS containing 0.08% trypan blue (Cat. # 15250-061, Invitrogen). Phase contrast images of multiple fields were randomly captured, and the percentage of trypan blue-stained cells was calculated.

[5] = test system: HMGB1 release, RAW 264.7 cells; assay: HMGB1 release, Western blotting; assay type: cell-based, murine; conditions: LPS 0.5 µg/ml, 16 h, P < 0.05 versus +LPS
[6] = test system: cytokines and chemokines, RAW 264.7 cells; assay: Cytokine antibody array; assay type: cell-based, murine; conditions: P5 10 μM, LPS 16 h, 62-cytokine antibody array
Method: Murine Cytokine Antibody Arrays (Cat. No. M0308003, RayBiotech Inc., Norcross, GA, USA), which respectively detect 62 cytokines on one membrane, were used to determine cytokine levels in macrophage-conditioned culture medium as previously described[51],[54]. Briefly, the membranes were sequentially incubated with equal volumes cell-conditioned culture medium (200 μl), primary biotin-conjugated antibodies, and horseradish peroxidase–conjugated streptavidin.

[7] = test system: LPS-induced Cx43 upregulation, macrophages; assay: LPS-induced Cx43 upregulation in presence of P5; assay type: cell-based; conditions: macrophage cultures; data not shown
Method: as §1

[8] = test system: hepatic I/R injury, C57BL/6 mice; assay: Hepatic ischemia/reperfusion injury; assay type: in vivo, Male C57BL/6 mice; conditions: P5 10.0 mg/kg i.v. at onset of reperfusion; 60 min ischemia; 24 h after onset of ischemia; P < 0.05 versus saline (I/R)
Method: Male C57BL/6 mice (20–25 g) were subjected to hepatic ischemia/reperfusion by temporally clamping the hepatic artery and portal vein for 60 min, which typically produced ischemia in 70% of the liver. At the beginning of the reperfusion, 0.2 ml saline, P5 (10.0 mg/kg BW) was injected via the internal jugular vein. At 24 h after the onset of ischemia, animals were euthanized to harvest blood to measure serum levels of hepatic injury markers such as alanine aminotransferase (ALT) and aspartate aminotransferase (AST) using commercial kits.

Cx43 EL1 peptide = biological target: T1, Cx43 EL1 peptide (Homo sapiens, UniProt P17302); assay: Surface Plasmon Resonance, Cx43 EL1 peptide; assay type: binding; conditions: synthetic full-length EL1 peptide, data not shown
T1 construct: synthetic full-length Cx43 EL1 or EL2 peptide as judged by the Surface Plasmon Resonance Analysis
T1 sequence (P17302 45-76 limits assumed): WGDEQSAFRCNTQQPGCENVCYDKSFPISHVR

ENVCYD [P5, cysteine-containing Cx43 EL1 mimetic hexamer peptide, P5 (ENVCYD)]
Cx43 protein expression [1]: did not alter Cx43 protein expression
gap junctional transfer of LY / RD immobility [2]: no obvious difference in the LY diffusion or RD immobility patterns
LPS-induced ATP release [3]: significantly attenuated the LPS-induced ATP release
LPS-induced trypan blue uptake [4]: significantly suppressed the LPS-induced elevation of trypan blue uptake
inhibition of LPS-induced HMGB1 release [5]: significantly inhibited by P5 in a dose-dependent fashion
other cytokines and chemokines [6]: did not affect
LPS-induced Cx43 upregulation [7]: did not affect the LPS-induced Cx43 upregulation
serum alanine aminotransferase (ALT) [8]: significant reduction of serum levels
serum aspartate aminotransferase (AST) [8]: significant reduction of serum levels
systemic release of LDH [8]: significantly attenuated
binding to Cx43 EL1 peptide (Cx43 EL1 peptide): did not find evidence of P5 interacting
